From paper PMC9181915, “Synthesis and Anti-Neuroinflammatory Activity of 1,7-diphenyl-1,4-heptadien-3-ones in LPS-Stimulated BV2 Microglia Via Inhibiting NF-κB/MAPK Signaling Pathways” (Molecules, 2022)

How the values were obtained:
[1] = MTT cell viability assay in BV2 microglia cells; assay type: cell-based; settings: mouse, mean ± SD, n = 3
Protocol: (§1) The BV2 microglial cells were purchased from the China Center for Type Culture Collection, CCTCC (Wuhan, Hubei). BV2 microglia cells were incubated in DMEM media supplemented with 10% (v/v) FBS, 100 U/mL penicillin G and […] streptomycin at 37 °C with 5% CO2.
Cell viability assays were evaluated using a 3-(4,5-dimethylthiazol-2-yl)-2,5-diphenyltetrazolium bromide (MTT) assay. BV2 microglia cells were seeded in 96-well plates at a density of 1.6 × 10^5 cells/well in complete medium and incubated for 24 h. Then, the culture medium was sucked and discarded, and sterile PBS was added for washing, and then PBS was removed. Then the cells were treated with different concentrations of target compounds for 24 h. An amount equal to 100 μL of MTT was added to each well and the cells were further incubated for 2–4 h. An amount equal to 150 μL of DMSO was added into a 96-well plate and vibrated with micro-oscillator for 10 min. The optical density (A) was measured at […] on a microplate reader. The inhibitory rate of the various concentrations of agents in BV2 cells was calculated using the following formula:Cell viability (%) = [A492 (sample) − A492 (blank)]/[A492 (control) − A492 (blank)] × 100%

[2] = tested on: LPS-induced NO release in BV2 cells; assay: Inhibition of LPS-induced NO release in BV2 cells; assay type: cell-based; settings: Mus musculus, BV-2; for inhibition at 1 µM / inhibition at 3 µM: pretreated 1 h, then LPS 1 μg/mL for 24 h, BV2 cells; for IC50: BV2 cells, 0.3, 1.0, 3.0 μM, LPS 1 μg/mL 24 h, mean ± SD, n = 3, read-out: IC50 to inhibit LPS-induced NO release
Protocol: as §1
Nitrite, a stable product of nitric oxide, was used to assess NO production. To study the effects of the compounds on NO production, BV2 microglia cells in the logarithmic phase were plated at 1 × 10^5 cells/well in a 24-well microplate and incubated in DMEM medium (10% FBS) overnight. The cells were pretreated with various concentrations of the test compounds for 1 h and further co-cultured with 1 μg/mL LPS and 5% CO2 for 24 h in a 37 °C incubator; then, the supernatant was taken and stored at −20 °C for NO detection. The target compound and LPS were configured with DMEM medium (2% FBS). The determination of NO was carried out according to the instructions. Unpretreated and unstimulated BV2 microglia cells were conducted as the blank control group. The absorbance value was determined at 540 nm, and the corresponding NO content was calculated by using the standard curve. The NO inhibitory rate of the various concentrations of agents in BV2 cells was calculated as per the following formula:Inhibition rate (%) = (LPS(NO concentration) − sample(NO concentration))/(LPS(NO concentration) − negative control(NO concentration)) × 100%.

Row | Structure (SMILES) | viability at 24 h, 1 µM [1] | viability at 24 h, 3 µM [1] | viability at 24 h, 10 µM [1] | inhibition at 1 µM [2] | melting point | inhibition at 3 µM [2] | IC50 [2]
1 | O=C(/C=C/CCc1ccc(O)cc1)/C=C/c1ccc(O)cc1 [CU-1, (1E,4E)-1,7-bis(4-hydroxyphenyl)-1,4-heptadien-3-one] | 88.07 ± 0.19% | 49.84 ± 0.27% | 23.7 ± 0.38% | 0% |  |  | 
2 | COc1ccc(/C=C/C(=O)/C=C/CCc2ccc(OC)c(OC)c2)cc1OC [CU-2, (1E,4E)-1,7-bis(3,4-dimethoxyphenyl)-1,4-heptadien-3-one] | 76.92 ± 0.19% | 49.2 ± 0.92% | 10.6 ± 1.13% | 0% | 97 to 99 °C |  | 
3 | COc1ccc(/C=C/C(=O)/C=C/CCc2ccccc2)cc1 [CU-3, (1E,4E)-7-phenyl-1-(4-methoxyphenyl)-1,4-heptadien-3-one] | 106.7 ± 0.14% | 101.55 ± 0.01% | 98.5 ± 0.01% |  | 48 to 50 °C | 35.2% | 
4 | COc1cc(/C=C/C(=O)/C=C/CCc2ccccc2)cc(OC)c1OC [CU-4, (1E,4E)-7-phenyl-1-(3,4,5-trimethoxyphenyl)-1,4-heptadien-3-one] | 107.23 ± 0.09% | 73.92 ± 0.3% | 16.6 ± 0.45% | 3.1% | 95 to 97 °C |  | 
5 | O=C(/C=C/CCc1ccccc1)/C=C/c1ccccc1O [CU-5, (1E,4E)-1-(2-hydroxyphenyl)-7-phenyl-1,4-heptadien-3-one] | 95.68 ± 0.11% | 77.39 ± 0.3% | 15.9 ± 0.61% | 0% | 134 to 136 °C |  | 
6 | O=C(/C=C/CCc1ccccc1)/C=C/c1cccc(O)c1 [CU-6, (1E,4E)-1-(3-hydroxyphenyl)-7-phenyl-1,4-heptadien-3-one] | 106.85 ± 0.1% | 100.07 ± 0.01% | 101.56 ± 0.03% |  | 94 to 96 °C | 22.1% | 
7 | O=C(/C=C/CCc1ccccc1)/C=C/c1ccc(O)cc1 [CU-7, (1E,4E)-1-(4-hydroxyphenyl)-7-phenyl-1,4-heptadien-3-one] | 93.46 ± 0.35% | 52.8 ± 0.5% | 14.3 ± 0.7% | 0% | 121 to 123 °C |  | 
8 | COc1ccc(/C=C/C(=O)/C=C/CCc2ccccc2)cc1O [CU-8, (1E,4E)-1-(3-hydroxy-4-methoxyphenyl)-7-phenyl-1,4-heptadien-3-one] | 101.18 ± 0.04% | 97.4 ± 0.07% | 18.2 ± 0.86% |  | 72 to 74 °C | 18.8% | 
9 | COc1cc(/C=C/C(=O)/C=C/CCc2ccccc2)ccc1O [CU-9, (1E,4E)-1-(4-hydroxy-3-methoxyphenyl)-7-phenyl-1,4-heptadien-3-one] | 99.38 ± 0.01% | 94.65 ± 0.07% | 14.8 ± 0.75% |  | 114 to 116 °C | 7.52% | 
10 | O=C(/C=C/CCc1ccccc1)/C=C/c1ccc(Cl)cc1 [CU-10, (1E,4E)-1-(4-chlorophenyl)-7-phenyl-1,4-heptadien-3-one] | 95.54 ± 0.03% | 95.27 ± 0.16% | 48.7 ± 2.93% |  | 70 to 72 °C | 0% | 
11 | Cc1ccc(CC/C=C/C(=O)/C=C/c2ccc(O)cc2)cc1 [CU-11, (1E,4E)-1-(4-hydroxyphenyl)-7-(p-tolyl)-1,4-heptadien-3-one] | 99.17 ± 0.01% | 91.61 ± 0.09% | 11.2 ± 0.56% |  | 132 to 134 °C | 0% | 
12 | COc1cc(CC/C=C/C(=O)/C=C/c2ccc(O)cc2)ccc1O [CU-12, (1E,4E)-7-(4-hydroxy-3-methoxyphenyl)-1-(4-hydroxyphenyl)-1,4-heptadien-3-one] | 92.03 ± 0.29% | 75.55 ± 0.17% | 12.7 ± 0.59% | 0% |  |  | 
13 | COc1ccc(CC/C=C/C(=O)/C=C/c2ccc(O)cc2)cc1 [CU-13, (1E,4E)-1-(4-hydroxyphenyl)-7-(4-methoxyphenyl)-1,4-heptadien-3-one] | 109.5 ± 0.27% | 91.4 ± 0.32% | 28.5 ± 1.3% |  | 136 to 138 °C | 0% | 
14 | COc1ccc(/C=C/C(=O)/C=C/CCc2ccc(OC)cc2)cc1 [CU-14, (1E,4E)-1,7-bis(4-methoxyphenyl)-1,4-heptadien-3-one] | 97.96 ± 0.01% | 97.44 ± 0.03% | 18.06 ± 0.1% |  | 65 to 67 °C | 49.7% | 2430 ± 450 nM
15 | O=C(/C=C/CCc1ccccc1)/C=C/c1ccccc1 [CU-15, (1E,4E)-1,7-diphenyl-1,4-heptadien-3-one] | 104.99 ± 0.03% | 103.11 ± 0.03% | 84.19 ± 0.21% |  |  | 13.7% | 
16 | Cc1ccc(/C=C/C(=O)/C=C/CCc2ccccc2)cc1 [CU-16, (1E,4E)-7-phenyl-1-(p-tolyl)-1,4-heptadien-3-one] | 95 ± 0.08% | 88.57 ± 0.28% | 33.3 ± 1.2% |  | 46 to 48 °C | 15.4% | 
17 | COc1cc(/C=C/C(=O)/C=C/CCc2ccc(O)cc2)ccc1O [CU-17, (1E,4E)-1-(4-hydroxy-3-methoxyphenyl)-7-(4-hydroxyphenyl)-1,4-heptadien-3-one] | 99.36 ± 0.01% | 80.72 ± 0.2% | 32.4 ± 0.67% | 0% | 141 to 143 °C |  | 
18 | COc1ccc(/C=C/C(=O)/C=C/CCc2ccc(O)cc2)cc1O [CU-18, (1E,4E)-1-(3-hydroxy-4-methoxyphenyl)-7-(4-hydroxyphenyl)-1,4-heptadien-3-one] | 96.14 ± 0.03% | 46.6 ± 1.16% | 8.63 ± 0.373% | 2.15% | 152 to 154 °C |  | 
19 | COc1cc(/C=C/C(=O)/C=C/CCc2ccc(O)c(OC)c2)ccc1O [CU-20, (1E,4E)-1,7-bis(4-hydroxy-3-methoxyphenyl)-1,4-heptadien-3-one] | 97.31 ± 0.03% | 51.8 ± 0.6% | 12.2 ± 0.21% | 16.9% | 103 to 105 °C |  | 
20 | Cc1ccc(CC/C=C/C(=O)/C=C/c2ccccc2)cc1 [CU-22, (1E,4E)-1-phenyl-7-(p-tolyl)-1,4-heptadien-3-one] | 95.14 ± 0.05% | 88.76 ± 0.06% | 46.6 ± 0.59% |  | 62 to 64 °C | 48.2% | > 3000 nM
21 | COc1ccc(CC/C=C/C(=O)/C=C/c2ccccc2)cc1OC [CU-23, (1E,4E)-7-(3,4-dimethoxyphenyl)-1-phenyl-1,4-heptadien-3-one] | 106.5 ± 0.14% | 100.85 ± 0.01% | 12.3 ± 0.84% |  |  | 31.4% | 
22 | COc1cc(CC/C=C/C(=O)/C=C/c2ccccc2)cc(OC)c1OC [CU-27, (1E,4E)-1-phenyl-7-(3,4,5-trimethoxyphenyl)-1,4-heptadien-3-one] | 116.1 ± 0.44% | 101.31 ± 0.03% | 38.9 ± 1.19% |  |  | 7.02% | 
